# Data reported in patent US9023821B2, “Use of MicroRNA for treating diseases associated with a dysfunction of the cilia in multiciliated epithelial cells” (Centre National de la Recherche Scientifique, priority 2009, dated 2015).
# Legend:
# [1] = test system: human airway epithelial cells (HAECs); experiment: High-throughput sequencing (HTS) of miRNAs at four stages of differentiation of HAECs
# Procedure, shortened: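 Cells at four air-liquid interface differentiation stages were lysed and total RNA with miRNAs purified. Adaptor Mix A or B ligation (16° C, 2-16 h) allowed 5′ or 3′ end sequencing. Abundance cut-off was 1% of total miRNAs in at least one stage.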
# [2] = test system: basal cells and pyramidal cells of the airway epithelium; experiment: miRNA expression in sorted basal cells versus pyramidal cells (ciliated + secretory), HTS and Agilent chips; design: species or system human
# Procedure, shortened: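 Read-out is miRNA profiling of total RNA, by Agilent chips or by high-throughput sequencing, in two sorted populations. These were basal cells (CD151+/TF+) and pyramidal ciliated/secretory cells (CD151−/TF−) from airway epithelium of 3 donors.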
# [3] = test system: human airway epithelial cells (HAECs); experiment: Agilent miRNA chips, miRNA expression at four stages of differentiation of HAECs
# Procedure, shortened: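 Patient RNA samples, the same ones analysed by high-throughput sequencing, were first labelled, then hybridized onto arrays carrying 866 human and 89 human viral miRNAs (miRBase v.12.0), following the supplied labelling and hybridization protocol.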
substance,measurement,setting,value
"hsa-miR-449a: human miRNA, SEQ ID No. 46 (UGGCAGUGUAUUGUUAGCUGGU; expressed or natural sequence; listed as Homo sapiens)","Modulation (ratio of the level of intensity of expression in log2 in two stages of differentiation) measured by high-throughput sequencing, D7 − D0","[1]; D7 − D0, Table VI",5.21 log2
same,"Modulation (ratio of the level of intensity of expression in log2 in two stages of differentiation) measured by high-throughput sequencing, FC − D7","[1]; FC − D7, Table VI",5.21 log2
same,"Modulation (ratio of the level of intensity of expression in log2 in two stages of differentiation), D7 − D0",[1]; HTS,5.21 log2
same,"Modulation (ratio of the level of intensity of expression in log2 in two stages of differentiation), FC − D7",[1]; HTS,5.21 log2
same,"Modulation (ratio of the level of intensity of expression in log2 in two stages of differentiation), WD − FC",[1]; HTS,0.21 log2
same,"Abundance (%), D0","[1]; HTS, ALI-D0",0.00%
same,"Abundance (%), D7","[1]; HTS, ALI-D7",0.18%
same,"Abundance (%), FC","[1]; HTS, ALI-FC",6.49%
same,"Abundance (%), WD","[1]; HTS, ALI-WD",5.70%
same,"Modulation (ratio of the level of intensity of expression in log2 in two stages of differentiation) measured by high-throughput sequencing, WD − D0","[1]; WD − D0, Table VI",10.63 log2
same,"Modulation (ratio of the level of intensity of expression in log2 in two stages of differentiation) measured by high-throughput sequencing, WD − FC","[1]; WD − FC, Table VI",0.21 log2
same,Level of intensity of expression in log2 At the differentiated stage (WD) measured in HTS,"[1]; healthy human airway epithelial tissue, stage WD",12.24 log2
same,"Level of intensity of expression in log2 measured by high-throughput sequencing, D0","[1]; stage D0, Table VI",4.48 log2
same,"Level of intensity of expression in log2 measured by high-throughput sequencing, D7","[1]; stage D7, Table VI",9.69 log2
same,"Level of intensity of expression in log2 measured by high-throughput sequencing, FC","[1]; stage FC, Table VI",14.90 log2
same,"Level of intensity of expression in log2 measured by high-throughput sequencing, WD","[1]; stage WD, Table VI",15.11 log2
same,Modulation of expression of the miRNAs in pyramidal cells (323(−)) relative to basal cells 323(+),[2]; HTS and Agilent chips,6.07
same,Intensity of the level of expression in log2 in basal cells (323(+)),[2]; basal cells,2.81 log2
same,Intensity of the level of expression in log2 in pyramidal cells (323(−)),[2]; pyramidal cells (ciliated + secretory),8.88 log2
same,"Modulation (ratio of the level of intensity of expression in log2 in two stages of differentiation) measured with the Agilent chips, D7 − D0","[3]; D7 − D0, Table VI",6.53 log2
same,"Modulation (ratio of the level of intensity of expression in log2 at two stages of differentiation), FC − D7","[3]; FC − D7, Agilent miRNA chips, Table V",5.70 log2
same,"Modulation (ratio of the level of intensity of expression in log2 in two stages of differentiation) measured with the Agilent chips, FC − D7","[3]; FC − D7, Table VI",5.70 log2
same,"Modulation (ratio of the level of intensity of expression in log2 in two stages of differentiation) measured with the Agilent chips, WD − D0","[3]; WD − D0, Table VI",12.08 log2
same,"Modulation (ratio of the level of intensity of expression in log2 at two stages of differentiation), WD − FC","[3]; WD − FC, Agilent miRNA chips, Table V",−0.15 log2
same,"Modulation (ratio of the level of intensity of expression in log2 in two stages of differentiation) measured with the Agilent chips, WD − FC","[3]; WD − FC, Table VI",−0.15 log2
same,"Level of intensity of expression in log2 measured with the Agilent chips, D0","[3]; stage D0, Table VI",1.47 log2
same,"Level of intensity of expression in log2 measured with the Agilent chips, D7","[3]; stage D7, Table VI",8.00 log2
same,"Level of intensity of expression in log2 measured with the Agilent chips, FC","[3]; stage FC, Table VI",13.70 log2
same,"Level of intensity of expression in log2 measured with the Agilent chips, WD","[3]; stage WD, Table VI",13.54 log2
